This is an account of results in patent US11091501B2, “Heterocyclic compounds as RSV inhibitors” (Enanta Pharmaceuticals, Inc., priority 2017, dated 2021).

The structures appear in SMILES notation.

In the assay the test system is Human RSV-A (“Long” strain). Kind of assay: RSV in vitro cytoprotection assay (CPE, ATPlite) in HEp-2 cells. It is filed as cell-based. Particulars: human respiratory syncytial virus, 96 h; HEp-2 cells, 4-day incubation, ATPlite readout; read-out: Human RSV-A (“Long” strain) EC50. The method in brief: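 HEp-2 cells (8,000/well) given 2-fold serial compound dilutions in duplicate, then infected with sucrose-stabilised RSV-A Long stock. After 4 days, cell viability read by ATPlite luminescence, with a parallel uninfected plate for cytotoxicity. EC50 binned A<0.01 μM, B 0.01-0.05 μM, C>0.05 μM.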
A general note: Cellular ATP, detected with luciferase, serves as a proxy for viable cell number.
As usually defined, the EC50 is the concentration giving half of the maximal effect. As to `Cc1cnc(N2CC3(CCOCC3)C2)c(C(=O)Nc2ccc(C(=O)N3CCc4cc(-c5c[nH]c6ncccc56)sc4-c4ccc(F)cc43)cc2)c1` [Example 173], the EC50 was less than 10 nM.

On to `Cc1cnc(N2CC3(CCOCC3)C2)c(C(=O)Nc2ccc(C(=O)N3CCc4cc(-c5c[nH]c6ccc(Cl)cc56)sc4-c4ccc(F)cc43)cc2)c1` [Example 174], for which the EC50 was greater than 50 nM.

In the case of `Cc1cnc(N2CC3(CCOCC3)C2)c(C(=O)Nc2ccc(C(=O)N3CCc4cc(-c5c[nH]c6c(Cl)cccc56)sc4-c4ccc(F)cc43)cc2)c1` [Example 175], the EC50 is greater than 50 nM.

As for `Cc1cnc(N2CC3(CCOCC3)C2)c(C(=O)Nc2ccc(C(=O)N3CCc4cc(-c5c[nH]c6ccc(C)cc56)sc4-c4ccc(F)cc43)cc2)c1` [Example 176], the EC50 is greater than 50 nM.

Turning to `Cc1cnc(N2CC3(CCOCC3)C2)c(C(=O)Nc2ccc(C(=O)N3CCc4cc(-c5c[nH]c6c(C)cccc56)sc4-c4ccc(F)cc43)cc2)c1` [Example 177], the EC50 was 10 to 50 nM.

As for `Cc1cnc(N2CC3(CCOCC3)C2)c(C(=O)Nc2ccc(C(=O)N3CCc4cc(-c5ccc6[nH]ncc6c5)sc4-c4ccc(F)cc43)cc2)c1` [Example 178], the EC50 was less than 10 nM.

Take `Cc1cnc(N2CC3(CCOCC3)C2)c(C(=O)Nc2ccc(C(=O)N3CCc4cc(-c5cnc6[nH]ncc6c5)sc4-c4ccc(F)cc43)cc2)c1` [Example 179]: the EC50 was less than 10 nM.

For the compound `Cc1cnc(N2CC3(CCOCC3)C2)c(C(=O)Nc2ccc(C(=O)N3CCc4cc(-c5c[nH]c6cccnc56)sc4-c4ccc(F)cc43)cc2)c1` [Example 180], the EC50 was 10 to 50 nM.

Take `Cc1cnc(N2CC3(CCOCC3)C2)c(C(=O)Nc2ccc(C(=O)N3CCc4cc(-c5n[nH]c6ccccc56)sc4-c4ccc(F)cc43)cc2)c1` [Example 181]: the EC50 is less than 10 nM.

For `Cc1cnc(N2CC3(CCOCC3)C2)c(C(=O)Nc2ccc(C(=O)N3CCc4cc(-c5ccc[nH]c5=O)sc4-c4ccc(F)cc43)cc2)c1` [Example 182], the concentration for a half-maximal effect (EC50) is less than 10 nM.

As to `Cc1cnc(N2CC3(CCOCC3)C2)c(C(=O)Nc2ccc(C(=O)N3CCc4cc(-c5cc[nH]c(=O)c5)sc4-c4ccc(F)cc43)cc2)c1` [Example 183], the EC50 was less than 10 nM.

In the case of `Cc1cnc(N2CC3(CCOCC3)C2)c(C(=O)Nc2ccc(C(=O)N3CCc4cc(-c5ccc(=O)[nH]c5)sc4-c4ccc(F)cc43)cc2)c1` [Example 184], the EC50 is less than 10 nM.

On to `Cc1cnc(N2CC3(CCOCC3)C2)c(C(=O)Nc2ccc(C(=O)N3CCc4cc(-c5c(F)cncc5F)sc4-c4ccc(F)cc43)cc2)c1` [Example 186], for which the EC50 fell in the range of 10 to 50 nM.

As for `Cc1cnc(N2CC3(CCOCC3)C2)c(C(=O)Nc2ccc(C(=O)N3CCc4cc(-c5ncc(C)[nH]5)sc4-c4ccc(F)cc43)cc2)c1` [Example 187], the EC50 is less than 10 nM.

On to `Cc1cnc(N2CC3(CCOCC3)C2)c(C(=O)Nc2ccc(C(=O)N3CCc4cc(-c5ccnnc5)sc4-c4ccc(F)cc43)cc2)c1` [Example 189], for which the EC50 is less than 10 nM.

In the case of `Cc1cnc(N2CC3(CCOCC3)C2)c(C(=O)Nc2ccc(C(=O)N3CCc4cc(-c5cccnn5)sc4-c4ccc(F)cc43)cc2)c1` [Example 190], the EC50 was less than 10 nM.

Regarding `Cc1cnc(N2CC3(CCOCC3)C2)c(C(=O)Nc2ccc(C(=O)N3CCc4cc(-c5ncccn5)sc4-c4ccc(F)cc43)cc2)c1` [Example 191], the EC50 was 10 to 50 nM.

Take `Cc1cnc(N2CC3(CCOCC3)C2)c(C(=O)Nc2ccc(C(=O)N3CCc4cc(-c5cnsc5)sc4-c4ccc(F)cc43)cc2)c1` [Example 192]: the EC50 was less than 10 nM.

For `Cc1cnc(N2CC3(CCOCC3)C2)c(C(=O)Nc2ccc(C(=O)N3CCc4cc(-c5nnc(C)o5)sc4-c4cc(F)c(F)cc43)cc2)c1` [Example 193], the EC50 was less than 10 nM.

For the compound `Cc1cnc(N2CC3(CCOCC3)C2)c(C(=O)Nc2ccc(C(=O)N3CCc4cc(-c5nnnn5C5CC5)sc4-c4ccc(F)cc43)cc2)c1` [Example 194], the EC50 was 10 to 50 nM.

On to `Cc1cnc(N2CC3(CCOCC3)C2)c(C(=O)Nc2ccc(C(=O)N3CCc4cc(-c5nnnn5C)sc4-c4ccc(F)cc43)cc2)c1` [Example 195], for which the EC50 was 10 to 50 nM.

For `Cc1cnc(N2CC3(CCOCC3)C2)c(C(=O)Nc2ccc(C(=O)N3CCc4cc(-c5nnn[nH]5)sc4-c4ccc(F)cc43)cc2)c1` [Example 196], the EC50 was greater than 50 nM.

For the compound `Cc1cnc(N2CC3(CCOCC3)C2)c(C(=O)Nc2ccc(C(=O)N3CCc4c(sc(C(=O)Nc5c(F)cccc5Cl)c4F)-c4ccccc43)cc2)c1` [Example 197], the EC50 was less than 10 nM.

As for `Cc1cnc(N2CC3(CCOCC3)C2)c(C(=O)Nc2ccc(C(=O)N3CCc4c(sc(C(=O)Nc5c(F)cc(F)cc5Cl)c4F)-c4ccccc43)cc2)c1` [Example 199], the EC50 was less than 10 nM.

On to `Cc1cnc(N2CC3(CCOCC3)C2)c(C(=O)Nc2ccc(C(=O)N3CCc4c(sc(C(=O)Nc5c(F)cccc5C(F)(F)F)c4F)-c4ccccc43)cc2)c1` [Example 200], for which the EC50 is less than 10 nM.

In the case of `Cc1cnc(N2CC3(CCOCC3)C2)c(C(=O)Nc2ccc(C(=O)N3CCc4c(sc(-c5nc6ccccc6[nH]5)c4F)-c4ccccc43)cc2)c1` [Example 201], the EC50 is less than 10 nM.

For `Cc1cnc(N2CC3(CCOCC3)C2)c(C(=O)Nc2ccc(C(=O)N3CCc4c(sc(-c5nc6cccc(Cl)c6[nH]5)c4F)-c4ccccc43)cc2)c1` [Example 202], the EC50 fell in the range of 10 to 50 nM.

Consider `Cc1cnc(N2CC3(CCOCC3)C2)c(C(=O)Nc2ccc(C(=O)N3CCc4c(sc(-c5nc6cccc(C(F)(F)F)c6[nH]5)c4F)-c4ccccc43)cc2)c1` [Example 203], for which the EC50 lay in the range of 10 to 50 nM.

`Cc1cnc(N2CC3(CCOCC3)C2)c(C(=O)Nc2ccc(C(=O)N3CCc4c(sc(C(=O)Nc5c(C)cccc5C#N)c4F)-c4ccccc43)cc2)c1` [Example 204]: the EC50 is less than 10 nM.

On to `Cc1cnc(N2CC3(CCOCC3)C2)c(C(=O)Nc2ccc(C(=O)N3CCc4c(sc(C(=O)Nc5ccccc5F)c4F)-c4ccccc43)cc2)c1` [Example 205], for which the EC50 is less than 10 nM.

`Cc1cnc(N2CC3(CCOCC3)C2)c(C(=O)Nc2ccc(C(=O)N3CCc4c(sc(-c5nc6cccc(F)c6[nH]5)c4F)-c4ccccc43)cc2)c1` [Example 206]: the EC50 is less than 10 nM.

Turning to `Cc1cnc(N2CC3(CCOCC3)C2)c(C(=O)Nc2ccc(C(=O)N3CCc4c(sc(-c5nc6ccc(F)cc6[nH]5)c4F)-c4ccccc43)cc2)c1` [Example 207], the EC50 was less than 10 nM.

Consider `Cc1cnc(N2CC3(CCOCC3)C2)c(C(=O)Nc2ccc(C(=O)N3CCc4c(sc(C(=O)Nc5c(C)cccc5C)c4F)-c4ccccc43)cc2)c1` [Example 208], for which the EC50 was less than 10 nM.

Take `Cc1cnc(N2CC3(CCOCC3)C2)c(C(=O)Nc2ccc(C(=O)N3CCc4c(sc(C(=O)Nc5ccc(F)cc5F)c4F)-c4ccccc43)cc2)c1` [Example 209]: the EC50 was less than 10 nM.

`Cc1cnc(N2CC3(CCOCC3)C2)c(C(=O)Nc2ccc(C(=O)N3CCc4c(sc(C(=O)Nc5cccc(F)c5)c4F)-c4ccccc43)cc2)c1` [Example 210]: the EC50 was less than 10 nM.

In the case of `Cc1cnc(N2CC3(CCOCC3)C2)c(C(=O)Nc2ccc(C(=O)N3CCc4c(sc(C(=O)Nc5ccccc5)c4F)-c4ccccc43)cc2)c1` [Example 211], the EC50 is less than 10 nM.

Take `Cc1cnc(N2CC3(CCOCC3)C2)c(C(=O)Nc2ccc(C(=O)N3CCc4c(sc(C(=O)Nc5cc(F)ccc5F)c4F)-c4ccccc43)cc2)c1` [Example 212]: the EC50 lay in the range of 10 to 50 nM.

`Cc1ccc(C(=O)Nc2ccc(C(=O)N3CCc4c(sc(C(=O)Nc5c(F)cccc5F)c4F)-c4ccccc43)cc2)c(N2CC3(CCOCC3)C2)n1` [Example 213]: the 50% effective concentration (EC50) was less than 10 nM.

`Cc1ccc(C(=O)Nc2ccc(C(=O)N3CCc4c(sc(-c5nc6cccc(F)c6[nH]5)c4F)-c4ccccc43)cc2)c(N2CC3(CCOCC3)C2)n1` [Example 214]: the EC50 was less than 10 nM.

Take `Cc1cnc(N2CC3(CCOCC3)C2)c(C(=O)Nc2ccc(C(=O)N3CCc4c(sc(C(=O)Nc5ncccc5F)c4F)-c4ccccc43)cc2)c1` [Example 215]: the EC50 is less than 10 nM.

As to `Cc1cnc(N2CC3(CCOCC3)C2)c(C(=O)Nc2ccc(C(=O)N3CCc4c(sc(C(=O)Nc5cccc(F)c5F)c4F)-c4ccccc43)cc2)c1` [Example 216], the EC50 was less than 10 nM.

Turning to `Cc1cnc(N2CC3(CCOCC3)C2)c(C(=O)Nc2ccc(C(=O)N3CCc4c(sc(C(=O)Nc5ccc(F)cc5)c4F)-c4ccccc43)cc2)c1` [Example 217], the EC50 was less than 10 nM.

Regarding `Cc1ccc(C(=O)Nc2ccc(C(=O)N3CCc4c(sc(C(=O)Nc5ncccc5F)c4F)-c4ccccc43)cc2)c(N2CC3(CCOCC3)C2)n1` [Example 218], the EC50 is less than 10 nM.

With `Cc1cnc(N2CC3(CCOCC3)C2)c(C(=O)Nc2ccc(C(=O)N3CCc4c(sc(C(=O)Nc5nc(C)ccc5F)c4F)-c4ccccc43)cc2)c1` [Example 219], the EC50 is less than 10 nM.

For `Cc1cc(C(=O)Nc2ccc(C(=O)N3CCc4c(sc(C(=O)Nc5c(F)cccc5F)c4F)-c4ccccc43)cc2)c(N2CC3(CCOCC3)C2)nc1C` [Example 220], the EC50 was less than 10 nM.

Regarding `Cc1cc(C(=O)Nc2ccc(C(=O)N3CCc4c(sc(C(=O)Nc5ncccc5F)c4F)-c4ccccc43)cc2)c(N2CC3(CCOCC3)C2)nc1C` [Example 221], the EC50 was less than 10 nM.

Consider `Cc1cnc(N2CC3(CCOCC3)C2)c(C(=O)Nc2ccc(C(=O)N3CCc4c(sc(C(=O)Nc5ncncc5F)c4F)-c4ccccc43)cc2)c1` [Example 222], for which the EC50 is less than 10 nM.

In the case of `Cc1cnc(N2CC3(CCOCC3)C2)c(C(=O)Nc2ccc(C(=O)N3CCc4c(sc(C(=O)Nc5ncc(C)s5)c4F)-c4ccccc43)cc2)c1` [Example 223], the EC50 is 10 to 50 nM.

As for `Cc1cnc(N2CC3(CCOCC3)C2)c(C(=O)Nc2ccc(C(=O)N3CCc4c(sc(C(=O)Nc5ncc(F)s5)c4F)-c4ccccc43)cc2)c1` [Example 224], the EC50 lay in the range of 10 to 50 nM.

`Cc1cnc(N2CC3(CCOCC3)C2)c(C(=O)Nc2ccc(C(=O)N3CCc4c(sc(C(=O)Nc5ncc(C(F)(F)F)s5)c4F)-c4ccccc43)cc2)c1` [Example 225]: the EC50 was greater than 50 nM.
